# Measurements reported in patent publication US8497278B2, “Imidazo[1,2-a]pyridine compounds” (priority 2008, dated 2013).
# System: central benzodiazepine receptors
# Assay: Central benzodiazepine receptor binding (test of Speth et al.)
# Conditions: 1000 nM of the compound
# Method: Compounds of the invention were assessed for their binding to the benzodiazepine receptor by the test of Speth et al. [Life Sci. 24, 351 (1979)] for central benzodiazepine receptors and LeFur et al. [Life Sci. 33, 449 (1983)] for peripheral receptors. The compounds were tested first at 1.0E-09, 1.0E-07 and 1.0E-05 M in single determination. […] The specific ligand binding to the receptor is defined as the difference between the total binding and the nonspecific binding determined in the presence of an excess of unlabelled ligand. In each experiment, the respective reference compound was tested concurrently with the test compounds in order to assess the assay suitability. It was tested at several concentrations (for IC50 value determination), and the data were compared with historical values. The assay was rendered valid if suitability criteria were met.
# BZD central binding data for the compounds is provided in Table 3, wherein is provided the percent inhibition of central BZD in the presence of 1000 nM of the compound.
row,SMILES,% Inhibition at 1000 nM for CBZD
1,"Cc1ccc(-c2nc3c(Cl)cc(Cl)cn3c2CNc2nc(C)cc(C)n2)cc1 [Compound 172, (6,8-Dichloro-2-p-tolyl-imidazo[1,2-a]pyridin-3-ylmethyl)-(4,6-dimethyl-pyrimidin-2-yl)-amine]",++ (percentage of inhibition of central BZD site binding is greater than 80% in the presence of 1000 nM of the compound)
2,"COC(=O)c1ncnn1Cc1c(-c2ccc(Cl)cc2)nc2ccccn12 [Compound 24, 2-[2-(4-Chloro-phenyl)-imidazo[1,2-a]pyridin-3-ylmethyl]-2H-[1,2,4]triazole-3-carboxylic acid methyl ester]",++ (percentage of inhibition of central BZD site binding is greater than 80% in the presence of 1000 nM of the compound)
3,"Cc1ccc(-c2nc3c(Cl)cc(Cl)cn3c2CN2CCCC2=O)cc1 [Compound 116, 1-(6,8-Dichloro-2-p-tolyl-imidazo[1,2-a]pyridin-3-ylmethyl)-pyrrolidin-2-one]",++ (percentage of inhibition of central BZD site binding is greater than 80% in the presence of 1000 nM of the compound)
4,"Cc1ccc(-c2nc3ccc(C)cn3c2CSc2nc(C)cc(C)n2)cc1 [Compound 181, 3-((4,6-dimethylpyrimidin-2-ylthio)methyl)-6-methyl-2-p-tolylH-imidazo[1,2-a]pyridine]",++ (percentage of inhibition of central BZD site binding is greater than 80% in the presence of 1000 nM of the compound)
5,"CCOC(=O)c1cc2ccccc2n1Cc1c(-c2ccc(Cl)cc2)nc2ccccn12 [Compound 37, Ethyl 1-((2-(4-chlorophenyl)imidazo[1,2-a]pyridin-3-yl)methyl)-1H-indole-2-carboxylate]",− (percentage of inhibition of central BZD site binding is less than 50% in the presence of 1000 nM of the compound)
6,"Cc1cccn(Cc2c(-c3ccc(Cl)cc3)nc3ccc(Cl)cn23)c1=O [Compound 109, 1-((6-chloro-2-(4-chlorophenyl)H-imidazo[1,2-a]pyridin-3-yl)methyl)-3-methylpyridin-2(1H)-one]",++ (percentage of inhibition of central BZD site binding is greater than 80% in the presence of 1000 nM of the compound)
7,"CCOC(=O)c1cc(C)nn1Cc1c(-c2ccc(Cl)cc2)nc2ccccn12 [Compound 28, Ethyl 1-((2-(4-chlorophenyl)imidazo[1,2-a]pyridin-3-yl)methyl)-3-methyl-1H-pyrazole-5-carboxylate]",++ (percentage of inhibition of central BZD site binding is greater than 80% in the presence of 1000 nM of the compound)
8,"O=c1ccccn1Cc1c(-c2ccc(Cl)cc2)nc2ccc(F)cn12 [Compound 122, 1-((2-(4-chlorophenyl)-6-fluoroimidazo[1,2-a]pyridin-3-yl)methyl)pyridin-2(1H)-one]",++ (percentage of inhibition of central BZD site binding is greater than 80% in the presence of 1000 nM of the compound)
9,"Cc1ccc(-c2nc3c(Cl)cc(Cl)cn3c2Cn2cccn2)cc1 [Compound 65, 3-((1H-pyrazol-1-yl)methyl)-6,8-dichloro-2-p-tolylimidazo[1,2-a]pyridine]",++ (percentage of inhibition of central BZD site binding is greater than 80% in the presence of 1000 nM of the compound)
10,"Cc1ccc(-c2nc3ccc(C)cn3c2CSc2nc[nH]n2)cc1 [Compound 177, 6-Methyl-2-p-tolyl-3-(1H-[1,2,4]triazol-3-ylsulfanylmethyl)-imidazo[1,2-a]pyridine]",+ (percentage of inhibition of central BZD site binding is greater than 50% but less than 80% in the presence of 1000 nM of the compound)
11,"COC1=CC(=O)N(Cc2c(-c3ccc(C)cc3)nc3ccc(C)cn23)C1 [Compound 94, 4-methoxy-1-((6-methyl-2-p-tolyl-H-imidazo[1,2-a]pyridin-3-yl)methyl)-1H-pyrrol-2(5H)-one]",++ (percentage of inhibition of central BZD site binding is greater than 80% in the presence of 1000 nM of the compound)
12,"CNC(=O)c1cc(C)nn1Cc1c(-c2ccc(Cl)cc2)nc2ccccn12 [Compound 79, 1-((2-(4-chlorophenyl)imidazo[1,2-a]pyridin-3-yl)methyl)-N,3-dimethyl-1H-pyrazole-5-carboxamide]",+ (percentage of inhibition of central BZD site binding is greater than 50% but less than 80% in the presence of 1000 nM of the compound)
13,"Cc1ccc(-c2nc3ccc(C)cn3c2CNc2nc(C)cc(C)n2)cc1 [Compound 148, 4,6-dimethyl-N-((6-methyl-2-p-tolylH-imidazo[1,2-a]pyridin-3-yl)methyl)pyrimidin-2-amine]",++ (percentage of inhibition of central BZD site binding is greater than 80% in the presence of 1000 nM of the compound)
14,"O=C1C=C(N2CCC(O)CC2)CN1Cc1c(-c2ccc(Cl)cc2)nc2ccccn12 [Compound 241, 1-((2-(4-chlorophenyl)imidazo[1,2-a]pyridin-3-yl)methyl)-4-(4-hydroxypiperidin-1-yl)-1H-pyrrol-2(5H)-one]",++ (percentage of inhibition of central BZD site binding is greater than 80% in the presence of 1000 nM of the compound)
15,"Cc1ccc(-c2nc3ccc(C)cn3c2CNc2cc(C)ns2)cc1 [Compound 151, 3-methyl-N-((6-methyl-2-p-tolylH-imidazo[1,2-a]pyridin-3-yl)methyl)isothiazol-5-amine]",++ (percentage of inhibition of central BZD site binding is greater than 80% in the presence of 1000 nM of the compound)
16,"Cc1ccc(-c2nc3ccc(C)cn3c2Cn2ccnc2C(C)C)cc1 [Compound 5, 3-((2-Isopropyl-1H-imidazol-1-yl)methyl)-6-methyl-2-p-tolylH-imidazo[1,2-a]pyridine]",++ (percentage of inhibition of central BZD site binding is greater than 80% in the presence of 1000 nM of the compound)
17,"Cc1ccc(-c2nc3ccc(C)cn3c2CSc2ccccc2)cc1 [Compound 163, 6-Methyl-3-phenylsulfanylmethyl-2-p-tolyl-imidazo[1,2-a]pyridine]",++ (percentage of inhibition of central BZD site binding is greater than 80% in the presence of 1000 nM of the compound)
18,"c1ccc(-c2nc3ccccn3c2Cn2ccnn2)cc1 [Compound 50, 3-((1H-1,2,3-triazol-1-yl)methyl)-2-phenylH-imidazo[1,2-a]pyridine]",+ (percentage of inhibition of central BZD site binding is greater than 50% but less than 80% in the presence of 1000 nM of the compound)
19,"Cc1cc(Cl)nc(NCc2c(-c3ccc(C#N)cc3)nc3ccc(Cl)cn23)n1 [Compound 161, 4-(6-chloro-3-((4-chloro-6-methylpyrimidin-2-ylamino)methyl)imidazo[1,2-a]pyridin-2-yl)benzonitrile]",++ (percentage of inhibition of central BZD site binding is greater than 80% in the presence of 1000 nM of the compound)
20,"Cc1ccc(-c2nc3ccc(C)cn3c2COn2nnc3ccccc32)cc1 [Compound 174, 1-((6-methyl-2-p-tolylH-imidazo[1,2-a]pyridin-3-yl)methoxy)-1H-benzo[d][1,2,3]triazole]",++ (percentage of inhibition of central BZD site binding is greater than 80% in the presence of 1000 nM of the compound)
21,"NC(=O)c1ncnn1Cc1c(-c2ccc(Cl)cc2)nc2cccnn12 [Compound 89, 1-((2-(4-chlorophenyl)imidazo[1,2-b]pyridazin-3-yl)methyl)-1H-1,2,4-triazole-5-carboxamide]",++ (percentage of inhibition of central BZD site binding is greater than 80% in the presence of 1000 nM of the compound)
22,"CNC(=O)c1ncnn1Cc1c(-c2ccc(C)cc2)nc2ccc(C)cn12 [Compound 68, 2-(6-Methyl-2-p-tolyl-imidazo[1,2-a]pyridin-3-ylmethyl)-2H-[1,2,4]triazole-3-carboxylic acid methylamide]",++ (percentage of inhibition of central BZD site binding is greater than 80% in the presence of 1000 nM of the compound)
23,"Cc1ccc(-c2nc3ccc(C)cn3c2Cn2ccnc2-c2ccccc2)cc1 [Compound 13, 6-Methyl-3-((2-phenyl-1H-imidazol-1-yl)methyl)-2-p-tolylH-imidazo[1,2-a]pyridine]",+ (percentage of inhibition of central BZD site binding is greater than 50% but less than 80% in the presence of 1000 nM of the compound)
24,"Fc1ccc(-c2nc3ccccn3c2Cn2cncn2)cc1 [Compound 54, 3-((1H-1,2,4-triazol-1-yl)methyl)-2-(4-fluorophenyl)H-imidazo[1,2-a]pyridine]",++ (percentage of inhibition of central BZD site binding is greater than 80% in the presence of 1000 nM of the compound)
25,"Cc1ccc(-c2nc3ccc(C)cn3c2CN2CCCCC2=O)cc1 [Compound 95, 1-((6-methyl-2-p-tolyl-H-imidazo[1,2-a]pyridin-3-yl)methyl)piperidin-2-one]",++ (percentage of inhibition of central BZD site binding is greater than 80% in the presence of 1000 nM of the compound)
26,"CNC(=O)c1nc2ccccc2n1Cc1c(-c2ccc(Cl)cc2)nc2ccccn12 [Compound 36, 1-((2-(4-chlorophenyl)imidazo[1,2-a]pyridin-3-yl)methyl)-N-methyl-1H-benzo[d]imidazole-2-carboxamide]",+ (percentage of inhibition of central BZD site binding is greater than 50% but less than 80% in the presence of 1000 nM of the compound)
